Experimental data: ChEMBL document CHEMBL5033997, “Macrolide Inspired Macrocycles as Modulators of the IL-17A/IL-17RA Interaction” (J Med Chem, 2021)

Experiment: Inhibition of recombinant human IL-17A/IL-17AR protein-protein interaction using TMB substrate compound added on IL17A precoated plate and followed by IL-17AR addition by ELISA

IC50	Structure (SMILES)
> 30000 nM	CO[C@]1(C)C[C@H](O[C@H]2[C@H](C)[C@@H](O[C@@H]3O[C@H](C)C[C@H](N(C)C)[C@H]3O)[C@](C)(O)C[C@@H](C)CN(C)C(=O)C[C@@H](Cc3ccc(NC(=O)[C@H](Cc4ccccc4Cl)NC(=O)Cc4ccccc4)cc3)NC(=O)C[C@H](C(C)C)NC(=O)[C@@H]2C)O[C@@H](C)[C@@H]1O
2560 nM	CO[C@]1(C)C[C@H](O[C@H]2[C@H](C)[C@@H](O[C@@H]3O[C@H](C)C[C@H](N(C)C)[C@H]3O)[C@](C)(O)C[C@@H](C)CN(C)C(=O)C[C@@H](Cc3ccc(NC(=O)[C@H](Cc4ccccc4Cl)NS(=O)(=O)Cc4ccccc4)cc3)NC(=O)[C@H](C(C)C)NC(=O)[C@@H]2C)O[C@@H](C)[C@@H]1O
48 nM	CO[C@]1(C)C[C@H](O[C@H]2[C@H](C)[C@@H](O[C@@H]3O[C@H](C)C[C@H](N(C)C)[C@H]3O)[C@](C)(O)C[C@@H](C)CN(C)C(=O)C[C@@H](Cc3ccc(NC(=O)[C@H](Cc4ccccc4Cl)NC(=O)NCc4cccc(F)c4)cc3)NC(=O)[C@H](C(C)C)NC(=O)[C@@H]2C)O[C@@H](C)[C@@H]1O
5390 nM	COc1ccc(C2(C(=O)N[C@@H](Cc3ccccc3Cl)C(=O)Nc3ccc(C[C@@H]4CC(=O)N(C)C[C@H](C)C[C@@](C)(O)[C@H](O[C@@H]5O[C@H](C)C[C@H](N(C)C)[C@H]5O)[C@@H](C)[C@H](O[C@H]5C[C@@](C)(OC)[C@@H](O)[C@H](C)O5)[C@@H](C)C(=O)N[C@@H](C(C)C)C(=O)N4)cc3)CC2)cc1
1600 nM	CO[C@]1(C)C[C@H](O[C@H]2[C@H](C)[C@@H](O[C@@H]3O[C@H](C)C[C@H](N(C)C)[C@H]3O)[C@](C)(O)C[C@@H](C)CN(C)C(=O)C[C@@H](Cc3ccc(NC(=O)[C@H](Cc4ccccc4Cl)NC(=O)Cc4cccc(S(C)(=O)=O)c4)cc3)NC(=O)[C@H](C(C)C)NC(=O)[C@@H]2C)O[C@@H](C)[C@@H]1O
471 nM	CO[C@]1(C)C[C@H](O[C@H]2[C@H](C)[C@@H](O[C@@H]3O[C@H](C)C[C@H](N(C)C)[C@H]3O)[C@](C)(O)C[C@@H](C)CN(C)C(=O)C[C@@H](Cc3ccc(NC(=O)[C@H](Cc4ccccc4Cl)NC(=O)Cc4cccc(C#N)c4)cc3)NC(=O)[C@H](C(C)C)NC(=O)[C@@H]2C)O[C@@H](C)[C@@H]1O
211 nM	CO[C@]1(C)C[C@H](O[C@H]2[C@H](C)[C@@H](O[C@@H]3O[C@H](C)C[C@H](N(C)C)[C@H]3O)[C@](C)(O)C[C@@H](C)CN(C)C(=O)C[C@@H](Cc3ccc(NC(=O)[C@H](Cc4ccc(Cl)cc4Cl)NC(=O)Cc4ccccc4)cc3)NC(=O)[C@H](C(C)C)NC(=O)[C@@H]2C)O[C@@H](C)[C@@H]1O
243 nM	CO[C@]1(C)C[C@H](O[C@H]2[C@H](C)[C@@H](O[C@@H]3O[C@H](C)C[C@H](N(C)C)[C@H]3O)[C@](C)(O)C[C@@H](C)CN(C)C(=O)C[C@@H](Cc3ccc(NC(=O)[C@H](Cc4ccccc4Cl)NC(=O)Cc4ccc(C)cc4)cc3)NC(=O)[C@H](C(C)C)NC(=O)[C@@H]2C)O[C@@H](C)[C@@H]1O
320 nM	CO[C@]1(C)C[C@H](O[C@H]2[C@H](C)[C@@H](O[C@@H]3O[C@H](C)C[C@H](N(C)C)[C@H]3O)[C@](C)(O)C[C@@H](C)CN(C)C(=O)C[C@@H](Cc3ccc(NC(=O)[C@H](Cc4ccccc4Cl)NC(=O)c4ccccc4)cc3)NC(=O)[C@H](C(C)C)NC(=O)[C@@H]2C)O[C@@H](C)[C@@H]1O
2900 nM	CO[C@]1(C)C[C@H](O[C@H]2[C@H](C)[C@@H](O[C@@H]3O[C@H](C)C[C@H](N(C)C)[C@H]3O)[C@](C)(O)C[C@@H](C)CN(C)C(=O)C[C@@H](Cc3ccc(NC(=O)[C@H](Cc4ccccc4Cl)NC(=O)Cc4ccccc4)cc3)NC(=O)[C@H](C(C)C)CNC(=O)[C@@H]2C)O[C@@H](C)[C@@H]1O
573 nM	CO[C@]1(C)C[C@H](O[C@H]2[C@H](C)[C@@H](O[C@@H]3O[C@H](C)C[C@H](N(C)C)[C@H]3O)[C@](C)(O)C[C@@H](C)CN(C)C(=O)C[C@@H](Cc3ccc(NC(=O)[C@H](Cc4ccccc4Cl)NC(=O)Cc4ccc(F)cc4)cc3)NC(=O)[C@H](C(C)C)NC(=O)[C@@H]2C)O[C@@H](C)[C@@H]1O
> 30000 nM	CO[C@]1(C)C[C@H](O[C@H]2[C@H](C)[C@@H](O[C@@H]3O[C@H](C)C[C@H](N(C)C)[C@H]3O)[C@](C)(O)C[C@@H](C)CN(C)C(=O)[C@H](C(C)C)NC(=O)C[C@H](Cc3ccc(NC(=O)[C@H](Cc4ccccc4Cl)NC(=O)Cc4ccccc4)cc3)NC(=O)[C@@H]2C)O[C@@H](C)[C@@H]1O
315 nM	CO[C@]1(C)C[C@H](O[C@H]2[C@H](C)[C@@H](O[C@@H]3O[C@H](C)C[C@H](N(C)C)[C@H]3O)[C@](C)(O)C[C@@H](C)CN(C)C(=O)C[C@@H](Cc3ccc(NC(=O)[C@H](Cc4ccccc4F)NC(=O)Cc4ccccc4)cc3)NC(=O)[C@H](C(C)C)NC(=O)[C@@H]2C)O[C@@H](C)[C@@H]1O
> 30000 nM	CO[C@]1(C)C[C@H](O[C@H]2[C@H](C)[C@@H](O[C@@H]3O[C@H](C)C[C@H](N(C)C)[C@H]3O)[C@](C)(O)C[C@@H](C)CN(C)C(=O)C[C@@H](Cc3ccc(NC(=O)[C@H](Cc4ccccc4Cl)NC(=O)Cc4ccccc4)cc3)NC(=O)[C@@H](C)NC(=O)[C@@H]2C)O[C@@H](C)[C@@H]1O
1090 nM	CO[C@]1(C)C[C@H](O[C@H]2[C@H](C)[C@@H](O[C@@H]3O[C@H](C)C[C@H](N(C)C)[C@H]3O)[C@](C)(O)C[C@@H](C)CN(C)C(=O)C[C@@H](Cc3ccc(NC(=O)[C@H](Cc4ccccc4Cl)NC(=O)COc4ccccc4)cc3)NC(=O)[C@H](C(C)C)NC(=O)[C@@H]2C)O[C@@H](C)[C@@H]1O
80 nM	CO[C@]1(C)C[C@H](O[C@H]2[C@H](C)[C@@H](O[C@@H]3O[C@H](C)C[C@H](N(C)C)[C@H]3O)[C@](C)(O)C[C@@H](C)CN(C)C(=O)C[C@@H](Cc3ccc(NC(=O)[C@H](Cc4ccccc4Cl)NC(=O)Cc4cccc(F)c4)cc3)NC(=O)[C@H](C(C)C)NC(=O)[C@@H]2C)O[C@@H](C)[C@@H]1O
323 nM	CO[C@]1(C)C[C@H](O[C@H]2[C@H](C)[C@@H](O[C@@H]3O[C@H](C)C[C@H](N(C)C)[C@H]3O)[C@](C)(O)C[C@@H](C)CN(C)C(=O)C[C@@H](Cc3ccc(NC(=O)[C@H](Cc4ccccc4Cl)NC(=O)Nc4ccc(F)cc4)cc3)NC(=O)[C@H](C(C)C)NC(=O)[C@@H]2C)O[C@@H](C)[C@@H]1O
15000 nM	CO[C@]1(C)C[C@H](O[C@H]2[C@H](C)[C@@H](O[C@@H]3O[C@H](C)C[C@H](N(C)C)[C@H]3O)[C@](C)(O)C[C@@H](C)CN(C)C(=O)C[C@@H](Cc3ccc(NC(=O)[C@H](Cc4ccccc4Cl)NC(=O)Cc4ccccc4)cc3)NC(=O)[C@H](C)NC(=O)[C@@H]2C)O[C@@H](C)[C@@H]1O
946 nM	CO[C@]1(C)C[C@H](O[C@H]2[C@H](C)[C@@H](O[C@@H]3O[C@H](C)C[C@H](N(C)C)[C@H]3O)[C@](C)(O)C[C@@H](C)CN(C)C(=O)C[C@@H](Cc3ccc(NC(=O)[C@H](Cc4ccccc4Cl)NC(=O)Cc4ccc(S(C)(=O)=O)cc4)cc3)NC(=O)[C@H](C(C)C)NC(=O)[C@@H]2C)O[C@@H](C)[C@@H]1O
> 30000 nM	CO[C@]1(C)C[C@H](O[C@H]2[C@H](C)[C@@H](O[C@@H]3O[C@H](C)C[C@H](N(C)C)[C@H]3O)[C@](C)(O)C[C@@H](C)CN(C)C(=O)[C@@H](Cc3ccc(NC(=O)[C@H](Cc4ccccc4Cl)NC(=O)Cc4ccccc4)cc3)NC(=O)C[C@@H](C(C)C)NC(=O)[C@@H]2C)O[C@@H](C)[C@@H]1O
> 30000 nM	CO[C@]1(C)C[C@H](O[C@H]2[C@H](C)[C@@H](O[C@@H]3O[C@H](C)C[C@H](N(C)C)[C@H]3O)[C@](C)(O)C[C@@H](C)CN(C)C(=O)[C@@H](Cc3ccc(NC(=O)[C@H](Cc4ccccc4Cl)NC(=O)Cc4ccccc4)cc3)NC(=O)C[C@H](C(C)C)NC(=O)[C@@H]2C)O[C@@H](C)[C@@H]1O
256 nM	CO[C@]1(C)C[C@H](O[C@H]2[C@H](C)[C@@H](O[C@@H]3O[C@H](C)C[C@H](N(C)C)[C@H]3O)[C@](C)(O)C[C@@H](C)CN(C)C(=O)[C@@H](C(C)C)NC(=O)C[C@H](Cc3ccc(NC(=O)[C@H](Cc4ccccc4Cl)NC(=O)Cc4ccccc4)cc3)NC(=O)[C@@H]2C)O[C@@H](C)[C@@H]1O
1400 nM	CO[C@]1(C)C[C@H](O[C@H]2[C@H](C)[C@@H](O[C@@H]3O[C@H](C)C[C@H](N(C)C)[C@H]3O)[C@](C)(O)C[C@@H](C)CN(C)C(=O)[C@H](Cc3ccc(NC(=O)[C@H](Cc4ccccc4Cl)NC(=O)Cc4ccccc4)cc3)NC(=O)[C@@H](C(C)C)NC(=O)[C@@H]2C)O[C@@H](C)[C@@H]1O
1190 nM	CO[C@]1(C)C[C@H](O[C@H]2[C@H](C)[C@@H](O[C@@H]3O[C@H](C)C[C@H](N(C)C)[C@H]3O)[C@](C)(O)C[C@@H](C)CN(C)C(=O)C[C@@H](Cc3ccc(NC(=O)[C@H](Cc4ccccc4Cl)NC(=O)C(O)c4ccccc4)cc3)NC(=O)[C@H](C(C)C)NC(=O)[C@@H]2C)O[C@@H](C)[C@@H]1O (some centres not stated)
397 nM	COc1ccc(C(=O)N[C@@H](Cc2ccccc2Cl)C(=O)Nc2ccc(C[C@@H]3CC(=O)N(C)C[C@H](C)C[C@@](C)(O)[C@H](O[C@@H]4O[C@H](C)C[C@H](N(C)C)[C@H]4O)[C@@H](C)[C@H](O[C@H]4C[C@@](C)(OC)[C@@H](O)[C@H](C)O4)[C@@H](C)C(=O)N[C@@H](C(C)C)C(=O)N3)cc2)cc1
> 30000 nM	CO[C@]1(C)C[C@H](O[C@H]2[C@H](C)[C@@H](O[C@@H]3O[C@H](C)C[C@H](N(C)C)[C@H]3O)[C@](C)(O)C[C@@H](C)CN(C)C(=O)C[C@@H](Cc3ccc(NC(=O)[C@H](Cc4ccccc4Cl)NC(=O)Cc4ccccc4)cc3)NC(=O)[C@@H](C(C)C)NC(=O)[C@@H]2C)O[C@@H](C)[C@@H]1O
77 nM	CO[C@]1(C)C[C@H](O[C@H]2[C@H](C)[C@@H](O[C@@H]3O[C@H](C)C[C@H](N(C)C)[C@H]3O)[C@](C)(O)C[C@@H](C)CN(C)C(=O)C[C@@H](Cc3ccc(NC(=O)[C@H](Cc4ccccc4Cl)NC(=O)Cc4cccc(C)c4)cc3)NC(=O)[C@H](C(C)C)NC(=O)[C@@H]2C)O[C@@H](C)[C@@H]1O
